Measured values from patent EP0439320A1, “Erectile dysfunction treatment” (YAMANOUCHI PHARMACEUTICAL CO. LTD., priority 1990, dated 1991).
No end group written: not given here.

Experiments:
[1] = test system: penis cavernous smooth muscle of pigs; assay: Relaxation of isolated pig cavernous smooth muscle strip precontracted with noradrenaline (organ bath, tension recorded); details: for Time until prior response restored: contractile response to noradrenaline
Experimental: The pig and humans cavernous smooth muscle specimens are placed in an organ bath, and the tension is recorded. […] Work was also conducted with reference compounds in the porcine tissue, measuring the contractile response to noradrenaline.

[2] = test system: human cavernous smooth muscle strip; assay: Relaxation of isolated human cavernous smooth muscle strip contracted with noradrenaline (organ bath); set-up: species or system humans; details: dose 10^-7 M, contracted with noradrenaline 2 x 10^-5 M, read-out: Inhibiting effect
Experimental: The relaxing effect of compound (I) on isolated specimens of penis cavernous smooth muscle of pigs (smooth muscle strips obtained from slaughtered boards) and of humans was tested by the following method. The pig and humans cavernous smooth muscle specimens are placed in an organ bath, and the tension is recorded. In the case of human cavernous smooth muscle strip, the relaxatory effect was evaluated. The specimen was contracted with a noradrenaline dose of 2 x 10⁻⁵ M and was treated with compound (I) at a dose of 10⁻⁷ M. In Table 2, the result for human tissue is shown.

[3] = test system: penis erection (tumescence) and its firmness (rigidity); assay: Tumescence and rigidity after intracorporeal injection in anesthetized monkeys; type: in vivo, monkeys (Cynogos or Vervet); details: 0.1 g injected into the corpus cavernosum; evaluated 5 to 120 min after injection; data only in Fig. 1
Experimental: Tumescence and rigidity after intracorporeal injection of compound (I) were evaluated for monkeys.
Anesthetized monkeys (Cynogos or Vervet), 4-6 kg body weight, were used for the test.
The animal was anesthetized with ketamine and 0.1 g of compound (I) was injected in solution into the corpus cavernosum with a tourniquet at the base of the penis; the animal was then under observation and changes in tumescence and rigidity were noted and plotted. The tourniquet was removed 5 min after the injection.
Manual and visual evaluation of tumescence and rigidity was made 5, 10, 15, 20, 30, 60 and 120 min after injection.
The activity of compound (I) (dose: 0.1 g) on penis erection (tumescence) and firmness (rigidity) in the anesthetized monkeys is shown in Fig. 1.

[4] = Acute toxicity test in mice; details: mouse, in vivo, single dose, 2 weeks observation, read-out: LD50 (95% confidence limits)
Experimental: (§1) The acute toxicity of compound (I) salt was evaluated using ICR mice and F344 rats.
(§2) compound (I) was dissolved in dimethylsulfoxide, and the same amount of Macrogol 400 (trade name) was added, and then distilled water for injection was added thereto to provide a solution of predetermined concentration. The solution was injected once each test, intravenously or subcutaneously, at a rate of 10-20 ml/kg, the maximum concentration of the administered solution being 12 mg/ml and 25 mg/ml respectively. The animals were kept under observation for 2 weeks. LD₅₀ values were determined by the up and down method (Probit method) using 5 animals.

[5] = Acute toxicity test in rats; details: rat, in vivo, F344 rats, single dose, 2 weeks observation, read-out: LD50 (95% confidence limits)
Experimental: as §1, §2

Compound: CCOc1ccccc1OCCNC(C)Cc1ccc(OC)c(S(N)(=O)=O)c1 (stereo not drawn) [Compound (I), 5-[2-[2-(2-ethoxyphenoxy)ethylamino]-2-methylethyl] -2-methoxybenzene sulfonamide]
- full response seen (contractile response to noradrenaline) ([1]; antagonist dose 10^-8 M, at 165 min, noradrenaline 10^-6 to 10^-8 M): At 165 min 60% of full response seen
- inhibition at 0.1 µM [2]: 100%
- Effect on penis erection (tumescence) and firmness (rigidity) [3]: excellent effects of potent penis erection, tumescence and rigidity with long lasting action
- LD50 at 336 h ([4]; iv, Female): 103 mg/kg
- LD50 at 336 h ([4]; iv, Male): 98 mg/kg
- LD50 at 336 h ([4]; sc, subcutaneous, Female): 275 mg/kg
- LD50 at 336 h ([4]; sc, subcutaneous, Male): 254 mg/kg
- LD50 at 336 h ([5]; iv, intravenous, Female): 78 mg/kg
- LD50 at 336 h ([5]; iv, intravenous, Male): 70 mg/kg
- LD50 at 336 h ([5]; sc, subcutaneous, Female): 347 mg/kg
- LD50 at 336 h ([5]; sc, subcutaneous, Male): 395 mg/kg

Compound: COc1ccc(Cc2nccc3cc(OC)c(OC)cc23)cc1OC [Papaverine]
- Time until prior response restored ([1]; antagonist dose 2 x 10^-4 M): 45 min

Compound: Cc1ccc(N(CC2=NCCN2)c2cccc(O)c2)cc1 [Phentolamine]
- Time until prior response restored ([1]; antagonist dose 7 x 10^-7 M): 150 min

Compound: COc1cc2nc(N3CCN(C(=O)c4ccco4)CC3)nc(N)c2cc1OC [Prazocin]
- Time until prior response restored ([1]; antagonist dose 10^-6 M): 160 min

Compound: vasoactive intestinal peptide (HSDAVFTDNYTRLRKQMAVKKYLNSILN; ends and bridges not checked; UniProt P01282 125-152, looked up) [VIP (vasoactive intestinal peptide)]
- Time until prior response restored ([1]; antagonist dose 10^-7 M): 45 min
